The values below come from publication PMC3469418, “New Partners in Regulation of Gene Expression: The Enhancer of Trithorax and Polycomb Corto Interacts with Methylated Ribosomal Protein L12 Via Its Chromodomain” (PLoS Genetics, 2012).

The target in test [1] is T1, Corto chromodomain (GST-CortoCD) (Drosophila melanogaster, UniProt P41046).
T1 construct: Over-expression of the Corto chromodomain (CortoCD); made in house
T1 sequence (P41046 127-203 limits assumed): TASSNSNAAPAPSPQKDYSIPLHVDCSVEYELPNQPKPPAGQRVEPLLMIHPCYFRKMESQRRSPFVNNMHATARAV
In words: Biacore real-time binding of peptides to immobilized GST-CortoCD. The settings on record: for kon: pH 7.4, Figure 5B, Biacore 3000, CM5 chip, peptides 1 to 10 µM in running buffer (10 mM Hepes pH7.4, 150 mM NaCl), 5 µL/min for 5 min, 1:1 Langmuir fit, read-out: CortoCD Ka. On the procedure: (§1) To test whether Corto directly interacted with RPL12 lysine 3, we measured real-time binding between CortoCD and several RPL12 peptides using Biacore. GST-CortoCD and GST were immobilized on a CM5 sensor chip. Then, several RPL12 peptides [unmodified (RPL12um), methylated on lysine 3 (RPL12K3me2, RPL12K3me3), methylated on lysine 10 (RPL12K10me3) or lysine 3 mutated (RPL12K3A)] were assayed for their binding to GST-CortoCD or GST (Figure 5, Figure S3).
(D) Equilibrium dissociation constant (KD) calculated from CortoCD or HP1CD interacting with unmethylated or trimethylated histone H3 peptides. For H3K9me3, peptide concentration was increased from 0 to 1 µM. For RPL12 and H3K27me3 peptide concentration was increased from 0 to 10 µM. NB: no binding; nd: not determined.
(§2) GST or GST fusion proteins were dialyzed using a Slide-A-Lyser cassette (Thermo Scientific) in running buffer (10 mM Hepes pH7.4, 150 mM NaCl, 3 mM EDTA, 0.005% P20 surfactant) (GE Healthcare). Real-time protein interaction assays were performed using a Biacore 3000. Kinetics and binding tests were first performed on empty surfaces. Data presented here result from substraction of empty surface RU (1 to 5 depending on the experiment) from active surface RU. GST was covalently coupled to a CM5 sensor chip (GE Healthcare) via its N-terminal amino acid. The carboxymethylated dextran surface was activated by injecting a mixture of 0.2 M 1-ethyl-3-(3-dimethylaminopropyl) and 0.05 M N-hydroxysuccinimide. GST was immobilized on the chip by injecting a 30 µg.mL^−1 solution in NaAc pH5 buffer. GST-CortoCD and GST-HP1CD were immobilized by injecting a 100 µg.mL^−1 solution in the same buffer. Binding tests were performed by injecting peptides at 1 or 10 µM in running buffer at a flow rate of 5 µL.min^−1 during 5 min. Kinetic assays were performed only when the binding test was positive. […] To calculate association constants, peptides were diluted in series from 1 to 10 µM in running buffer and dilutions were injected sequentially at a flow rate of 5 µL.mn^−1 during 5 min. Dissociation kinetics were then run during 10 min to calculate dissociation constants. Between assays, the chip was regenerated with 10 mM glycine pH2.0. Kinetic constants were calculated with BIAevaluation Software (Biacore) using the Fit kinetic simultaneous ka/kd (1∶1 binding; Langmuir algorithm). RPL12 peptides were synthesized at the IFR83 Peptide synthesis facility (Table S13). Histone peptides were provided by Diagenode (H3K27me3: sp-069-050; H3K4me3: sp-003-050; H3K9me3: sp-056-050; H3K4/K9um: sp-999-050; H3K27um: sp-998-050).
In general terms: Surface plasmon resonance follows binding to a sensor surface in real time, without labels.

Test [2] has as its target HP1 chromodomain (GST-HP1CD) (Drosophila melanogaster, UniProt P05205). Put plainly: Biacore real-time binding of peptides to immobilized GST-HP1CD. The procedure:
Figure 5 Preferential binding of Corto chromodomain to RPL12 trimethylated on lysine 3. (A) Biacore sensorgrams showing binding of either RPL12 unmethylated peptide (RPL12 um, left panel) or RPL12 peptide trimethylated on lysine 3 (RPL12K3me3, right panel) to CortoCD. Increasing concentrations of RPL12 um or RPL12K3me3 peptides were used [from 0 (light grey lines) to 10 µM (darker grey to black lines]. Binding (Y-axis, Response) is expressed in Resonance Units (RU) relative to time (X-axis). Note the response due to end of injection of the peptides at 300 s. (B) Kinetic parameters of interaction between CortoCD and RPL12 um, RPL12K3me2 or RPL12K3me3 peptides. Note that CortoCD interacts specifically with RPL12 trimethylated on lysine 3 (KD = 8 µM). (C) Equilibrium dissociation constant (KD) calculated for CortoCD or HP1CD in interaction with RPL12 um peptide, RPL12 methylated peptides, or RPL12K3A peptide. Note that CortoCD specifically binds to RPL12K3me3 (KD<100 µM). (D) Equilibrium dissociation constant (KD) calculated from CortoCD or HP1CD interacting with unmethylated or trimethylated histone H3 peptides. For H3K9me3, peptide concentration was increased from 0 to 1 µM. For RPL12 and H3K27me3 peptide concentration was increased from 0 to 10 µM. NB: no binding; nd: not determined. TEXT PRINTED IN THE PICTURE: (B) RpL12um: CortoCD Ka ( M^-1s^-1): 1.2; CortoCD Kd ( s^-1): 7.6.10^-4; CortoCD KD (μM): 624 | (B) RpL12K3me2: CortoCD Ka ( M^-1s^-1): 4.1; CortoCD Kd ( s^-1): 9.9.10^-4; CortoCD KD (μM): 238 | (B) RpL12K3me3: CortoCD Ka ( M^-1s^-1): 106; CortoCD Kd ( s^-1): 8.2.10^-4; CortoCD KD (μM): 8 | (C) RpL12um: CortoCD: 624; HP1CD: > 1000 | (C) RpL12K3me2: CortoCD: 238 | (C) RpL12K3me3: CortoCD: 8; HP1CD: 292 | (C) RpL12K10me3: CortoCD: NB; HP1CD: NB | (C) RpL12K3A: CortoCD: NB; HP1CD: NB | (D) H3K4me3: CortoCD: NB; HP1CD: NB | (D) H3K9me3: CortoCD: NB; HP1CD: 0.4 | (D) H3K27me3: CortoCD: NB; HP1CD: 0.7 | (D) H3um: CortoCD: NB; HP1CD: NB | (D) H3K27um: CortoCD: NB; HP1CD: NB DOUBTS OF THE COPYIST ABOUT THIS PICTURE: Panels C and D: the picture prints no measure or unit for the table values, so they are given with the row head only / Panel C, RpL12K3me2, HP1CD: the cell prints 'nd', which is not a result and is left out
To investigate whether RPL12K3me3 could bind to other chromodomains, we repeated these experiments using that of HP1 (HP1CD). GST-HP1CD was immobilized on the sensor chip and binding of either RPL12, RPL12K3me3, RPL12K10me3 or RPL12K3A was tested. None of these peptides specifically interacted with HP1CD (KD>200 µM) (Figure 5C, Figure S3). […] No binding of unmodified H3, H3K27me3, H3K9me3 or H3K4me3 peptides was observed (Figure 5D) while, as expected, the H3K9me3 peptide bound HP1CD with high affinity (KD = 0.4 µM).
GST or GST fusion proteins were dialyzed using a Slide-A-Lyser cassette (Thermo Scientific) in running buffer (10 mM Hepes pH7.4, 150 mM NaCl, 3 mM EDTA, 0.005% P20 surfactant) (GE Healthcare). Real-time protein interaction assays were performed using a Biacore 3000. Kinetics and binding tests were first performed on empty surfaces. Data presented here result from substraction of empty surface RU (1 to 5 depending on the experiment) from active surface RU. GST was covalently coupled to a CM5 sensor chip (GE Healthcare) via its N-terminal amino acid. The carboxymethylated dextran surface was activated by injecting a mixture of 0.2 M 1-ethyl-3-(3-dimethylaminopropyl) and 0.05 M N-hydroxysuccinimide. […]

The next test deals with T2, GST (Schistosoma japonicum, UniProt P08515).
T2 construct: made in house
In words: Biacore real-time binding of peptides to immobilized GST (control surface). The settings on record: binding test, peptides at 1 or 10 µM. The procedure: as §1
as §2, with “RPL12 peptides were synthesized at the IFR83 Peptide synthesis facility (Table S13). Histone peptides were provided by Diagenode (H3K27me3: sp-069-050; H3K4me3: sp-003-050; H3K9me3: sp-056-050; H3K4/K9um: sp-999-050; H3K27um: sp-998-050).” left out

Setting [3] is: >200 µM = no specific interaction, read-out: KD for HP1CD.

Where two headings read alike, the source gives them in different places. Where a SMILES comes first, the peptide text is derived from it. Where no end group is shown, it is not given here. [ ]: non-standard residue; d: D form. Lys(Me3) = C[N+](C)(C)CCCC[C@H](N)C(=O)O; Lys(Me2) = CN(C)CCCC[C@H](N)C(=O)O

HP1 chromodomain (GST-HP1CD), sequence (P05205 24-82 limits assumed): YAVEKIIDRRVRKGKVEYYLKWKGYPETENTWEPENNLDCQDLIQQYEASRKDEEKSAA
T2 sequence (P08515 whole entry): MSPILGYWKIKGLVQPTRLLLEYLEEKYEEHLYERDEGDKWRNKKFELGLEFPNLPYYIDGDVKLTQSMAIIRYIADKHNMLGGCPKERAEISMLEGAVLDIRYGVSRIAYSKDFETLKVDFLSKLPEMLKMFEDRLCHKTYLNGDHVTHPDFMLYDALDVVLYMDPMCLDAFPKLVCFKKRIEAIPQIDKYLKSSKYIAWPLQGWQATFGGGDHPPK

For orientation: Kd means a measure of binding affinity in units of concentration. Consider `CC(C)C[C@H](NC(=O)[C@H](Cc1ccc(O)cc1)NC(=O)[C@@H](NC(=O)[C@H](CC(C)C)NC(=O)[C@H](CCCCN)NC(=O)[C@@H](NC(=O)[C@H](CCC(=O)O)NC(=O)[C@@H](NC(=O)[C@@H]1CCCN1C(=O)[C@H](CC(=O)O)NC(=O)[C@H](Cc1ccccc1)NC(=O)[C@H](CCCCN(C)C)NC(=O)[C@@H]1CCCN1C(=O)[C@@H]1CCCN1)[C@@H](C)O)C(C)C)C(C)C)C(=O)N[C@@H](CCCNC(=N)N)C(=O)N[C@@H](CS)C(=O)N[C@H](C(=O)NCC(=O)NCC(=O)N[C@@H](CCC(=O)O)C(=O)N[C@H](C(=O)NCC(=O)N[C@@H](C)C(=O)O)C(C)C)C(C)C` [RpL12K3me2] (H-PP[Lys(Me2)]FDPTEVKLVYLRCVGGEVGA-OH), for which, in test [1], the Kd was above 200 µM and the kon was 4.1 M⁻¹ s⁻¹.
Regarding `CC(C)C[C@H](NC(=O)[C@H](Cc1ccc(O)cc1)NC(=O)[C@@H](NC(=O)[C@H](CC(C)C)NC(=O)[C@H](CCCCN)NC(=O)[C@@H](NC(=O)[C@H](CCC(=O)O)NC(=O)[C@@H](NC(=O)[C@@H]1CCCN1C(=O)[C@H](CC(=O)O)NC(=O)[C@H](Cc1ccccc1)NC(=O)[C@H](CCCC[N+](C)(C)C)NC(=O)[C@@H]1CCCN1C(=O)[C@@H]1CCCN1)[C@@H](C)O)C(C)C)C(C)C)C(=O)N[C@@H](CCCNC(=N)N)C(=O)N[C@@H](CS)C(=O)N[C@H](C(=O)NCC(=O)NCC(=O)N[C@@H](CCC(=O)O)C(=O)N[C@H](C(=O)NCC(=O)N[C@@H](C)C(=O)O)C(C)C)C(C)C` [RpL12K3me3] (H-PP[Lys(Me3)]FDPTEVKLVYLRCVGGEVGA-OH), the values for the dissociation constant (Kd) in test [1] and in test [2] (setting [3]) were 8 µM and above 200 µM, respectively. The kon in test [1] is 106 M⁻¹ s⁻¹.
Consider `CC(C)C[C@H](NC(=O)[C@H](Cc1ccc(O)cc1)NC(=O)[C@@H](NC(=O)[C@H](CC(C)C)NC(=O)[C@H](CCCC[N+](C)(C)C)NC(=O)[C@@H](NC(=O)[C@H](CCC(=O)O)NC(=O)[C@@H](NC(=O)[C@@H]1CCCN1C(=O)[C@H](CC(=O)O)NC(=O)[C@H](Cc1ccccc1)NC(=O)[C@H](CCCCN)NC(=O)[C@@H]1CCCN1C(=O)[C@@H]1CCCN1)[C@@H](C)O)C(C)C)C(C)C)C(=O)N[C@@H](CCCNC(=N)N)C(=O)N[C@@H](CS)C(=O)N[C@H](C(=O)NCC(=O)NCC(=O)N[C@@H](CCC(=O)O)C(=O)N[C@H](C(=O)NCC(=O)N[C@@H](C)C(=O)O)C(C)C)C(C)C` [RpL12K10me3] (H-PPKFDPTEV[Lys(Me3)]LVYLRCVGGEVGA-OH), for which the dissociation constant (Kd) in test [1] and in test [2] (setting [3]) was above 200 µM each time. Besides, the “binding of RPL12 peptides to GST (in words)” value (shortened to “binding of RPL12 peptides”) on GST is on record as “None of these peptides bound GST”.
As for H-PPAFDPTEVKLVYLRCVGGEVGA-OH [RpL12K3A], the Kd in test [1] and in test [2] (setting [3]) was above 200 µM in each case. For the same compound, the “binding of RPL12 peptides” value at GST was “None of these peptides bound GST”.
With PPKFDPTEVKLVYLRCVGGEVGA [RpL12um], the dissociation constant (Kd) in test [1] is above 200 µM; in test [2] (setting [3]) it was above 200 µM; in test [2] (Figure 5C, RPL12 peptides 0 to 10 µM, NB = no binding, read-out: Equilibrium dissociation constant (KD), HP1CD), above 1000 µM. Besides, in test [1], the kon worked out at 1.2 M⁻¹ s⁻¹. In addition, the “binding of RPL12 peptides” value on GST is “None of these peptides bound GST”.
